Read-outs that look alike come from different tables or passages of the source.
Key:
ErbB2 kinase = ErbB2 kinase (Homo sapiens, UniProt P04626); assay: Enzymatic experiment on ErbB2 (HTRF kinEASE-TK); assay type: biochemical
In short: (§1)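 HTRF kinEASE-TK with biotinylated TK substrate in HEPES pH 7.0 buffer containing MnCl2, MgCl2 and DTT; ErbB2 at 0.06 ng/μl with 4 μM ATP, EGFR at 0.06 units/μl with 1.65 μM ATP, 30 min at room temperature after 5 min enzyme/substrate–compound preincubation. Ten-point 3-fold dilutions; Eu antibody/SA-XL665 detection, 665/620 ratio.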

EGFR kinase = EGFR kinase (Homo sapiens, UniProt P00533); assay: Enzymatic experiment on EGFR (HTRF kinEASE-TK); assay type: biochemical
In short: as §1

N87 = assay: Proliferation inhibition assay in vitro, N87 (CellTiter-Glo); assay type: cell-based; conditions: Homo sapiens; 72 hours; read-out: IC50(nM) cell N87
In short: (§2)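 Cells were seeded at 8.8×10^4 cells/mL for BT-474 or 6.6×10^4 cells/mL for N87 and grown overnight. Compound was added at 9 concentrations in duplicate for 72 h at 37 °C, 5% CO2. Viability was measured by CellTiter-Glo.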

BT-474 = assay: Proliferation inhibition assay in vitro, BT-474 (CellTiter-Glo); assay type: cell-based; conditions: Homo sapiens, 72 hours, read-out: IC50(nM) cell BT-474
In short: as §2

[1] = ATP 4 μM, read-out: Kinase IC50 (nM) in vitro ErbB2
[2] = ATP 1.65 μM, read-out: Kinase IC50 (nM) in vitro EGFR

ErbB2 kinase, sequence (P04626 23-1255): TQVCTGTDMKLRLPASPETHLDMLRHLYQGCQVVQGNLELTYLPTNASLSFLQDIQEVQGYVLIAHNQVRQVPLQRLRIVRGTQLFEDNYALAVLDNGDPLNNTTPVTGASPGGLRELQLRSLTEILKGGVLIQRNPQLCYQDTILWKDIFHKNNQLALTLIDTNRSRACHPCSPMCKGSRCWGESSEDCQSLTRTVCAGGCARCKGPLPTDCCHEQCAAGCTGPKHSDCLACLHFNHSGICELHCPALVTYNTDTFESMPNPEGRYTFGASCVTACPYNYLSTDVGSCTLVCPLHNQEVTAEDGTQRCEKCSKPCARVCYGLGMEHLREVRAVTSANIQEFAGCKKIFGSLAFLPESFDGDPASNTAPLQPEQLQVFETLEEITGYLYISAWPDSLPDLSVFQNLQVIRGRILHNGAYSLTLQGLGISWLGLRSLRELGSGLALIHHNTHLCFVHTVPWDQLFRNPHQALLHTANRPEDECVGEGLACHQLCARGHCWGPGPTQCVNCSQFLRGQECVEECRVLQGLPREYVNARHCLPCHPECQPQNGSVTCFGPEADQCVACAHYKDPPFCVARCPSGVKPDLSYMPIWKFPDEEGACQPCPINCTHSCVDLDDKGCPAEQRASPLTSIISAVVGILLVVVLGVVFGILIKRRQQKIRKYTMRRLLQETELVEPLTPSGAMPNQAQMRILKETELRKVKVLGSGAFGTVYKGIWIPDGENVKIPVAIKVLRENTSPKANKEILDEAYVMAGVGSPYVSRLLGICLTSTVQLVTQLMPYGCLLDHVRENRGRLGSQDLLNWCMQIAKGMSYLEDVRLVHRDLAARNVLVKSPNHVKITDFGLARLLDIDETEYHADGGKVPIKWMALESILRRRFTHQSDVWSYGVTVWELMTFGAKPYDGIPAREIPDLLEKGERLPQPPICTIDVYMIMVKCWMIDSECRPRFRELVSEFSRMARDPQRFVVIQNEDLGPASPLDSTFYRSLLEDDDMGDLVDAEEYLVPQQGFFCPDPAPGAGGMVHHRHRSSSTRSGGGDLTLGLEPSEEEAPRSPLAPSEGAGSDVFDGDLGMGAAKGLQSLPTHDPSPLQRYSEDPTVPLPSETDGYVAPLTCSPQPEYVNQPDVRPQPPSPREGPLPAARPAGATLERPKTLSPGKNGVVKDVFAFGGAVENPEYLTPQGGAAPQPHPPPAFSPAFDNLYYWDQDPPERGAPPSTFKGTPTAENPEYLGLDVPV
EGFR kinase, sequence (P00533 25-1210): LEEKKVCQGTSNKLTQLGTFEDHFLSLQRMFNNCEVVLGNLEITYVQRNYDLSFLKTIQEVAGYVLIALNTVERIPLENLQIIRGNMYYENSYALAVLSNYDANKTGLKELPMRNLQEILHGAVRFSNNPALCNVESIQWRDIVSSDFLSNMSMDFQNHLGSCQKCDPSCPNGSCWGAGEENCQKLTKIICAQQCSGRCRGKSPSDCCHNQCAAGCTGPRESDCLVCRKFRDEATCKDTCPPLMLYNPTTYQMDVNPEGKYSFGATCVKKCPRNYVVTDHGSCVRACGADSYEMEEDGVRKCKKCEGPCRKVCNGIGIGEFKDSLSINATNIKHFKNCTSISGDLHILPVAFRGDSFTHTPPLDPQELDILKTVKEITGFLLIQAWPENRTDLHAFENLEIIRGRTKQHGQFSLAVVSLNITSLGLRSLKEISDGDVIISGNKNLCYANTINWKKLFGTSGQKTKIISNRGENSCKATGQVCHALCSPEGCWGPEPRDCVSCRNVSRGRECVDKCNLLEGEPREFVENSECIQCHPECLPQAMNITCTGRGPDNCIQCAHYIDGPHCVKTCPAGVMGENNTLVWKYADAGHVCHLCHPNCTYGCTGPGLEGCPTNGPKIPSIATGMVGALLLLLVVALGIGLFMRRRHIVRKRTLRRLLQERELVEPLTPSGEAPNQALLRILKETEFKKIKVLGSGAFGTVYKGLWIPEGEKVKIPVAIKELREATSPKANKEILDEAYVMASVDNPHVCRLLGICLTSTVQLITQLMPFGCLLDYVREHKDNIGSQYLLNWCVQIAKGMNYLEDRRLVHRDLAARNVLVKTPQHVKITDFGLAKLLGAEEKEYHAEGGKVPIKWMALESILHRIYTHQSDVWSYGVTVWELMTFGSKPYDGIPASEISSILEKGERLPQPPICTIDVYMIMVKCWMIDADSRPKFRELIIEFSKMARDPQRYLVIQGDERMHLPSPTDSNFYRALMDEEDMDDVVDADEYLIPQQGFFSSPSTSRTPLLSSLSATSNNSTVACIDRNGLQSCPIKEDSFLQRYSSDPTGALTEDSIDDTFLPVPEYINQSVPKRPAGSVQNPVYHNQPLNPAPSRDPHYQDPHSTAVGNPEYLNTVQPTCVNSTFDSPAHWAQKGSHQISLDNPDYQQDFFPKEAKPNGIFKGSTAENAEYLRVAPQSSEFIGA

Compound | IC50 (ErbB2 kinase; [1]) [nM] | IC50 (EGFR kinase; [2]) [nM] | IC50 (BT-474) [nM] | IC50 (N87) [nM] | IC50 (ErbB2 kinase) [nM] | IC50 (EGFR kinase) [nM]
C=CC(=O)Nc1ccc(-c2ccc3ncnc(Nc4ccc(Oc5cc6nncn6cn5)c(C)c4)c3c2)cn1 [Embodiment 54, N-(5-(4-((4-([1,2,4]triazolo[4,3-c]pyrimidin-7-yloxy)-3-methylphenyl)amino)quinazolin-6-yl)pyridin-2-yl)acrylamide] | 6.4 | 370 | 32.8 | 150 |  | 
C=CC(=O)Nc1cc(-c2ccc3ncnc(Nc4ccc(Oc5cc6nncn6cn5)c(C)c4)c3c2)ccn1 [Embodiment 55, N-(4-(4-((4-([1,2,4]triazolo[4,3-c]pyrimidin-7-yloxy)-3-methylphenyl)amino)quinazolin-6-yl)pyridin-2-yl)acrylamide] | 1 | 15.9 | 28.4 | 122 |  | 
C=CC(=O)Nc1ccc(-c2ccc3ncnc(Nc4ccc(Oc5cc6nncn6cn5)c(C)c4)c3c2)c(C)n1 [Embodiment 56, N-(5-(4-((4-([1,2,4]triazolo[4,3-c]pyrimidin-7-yloxy)-3-methylphenyl)amino)quinazolin-6-yl)-6-methylpyridin-2-yl)acrylamide] | 34 | 2450 | 35.4 | 466 |  | 
Cc1cc(Nc2ncnc3ccc(NC(=O)/C=C/CN(C)C)cc23)ccc1Oc1cc2nncn2cn1 [Embodiment 57, (E)-N-(4-((4-([1,2,4]triazolo[4,3-c]pyrimidin-7-yloxy)-3-methylphenyl)amino)quinazolin-6-yl)-4-(dimethylamino)-2-butenamide] | 1.7 | 2.7 | 5.6 | 12.8 |  | 
Cc1cc(Nc2ncnc3ccc(NC(=O)C4CC(Br)=NO4)cc23)ccc1Oc1cc2nncn2cn1 (stereo not drawn) [Embodiment 58, N-(4-((4-([1,2,4]triazolo[4,3-c]pyrimidin-7-yloxy)-3-methylphenyl)amino)quinazolin-6-yl)-3-bromo-4,5-dihydroisoxazol-5-carboxamide] | 5.4 | 206 | 352 | 192 |  | 
Cc1cc(Nc2ncnc3ccc(-c4ccc(CN(C)C)o4)cc23)ccc1Oc1cc2nncn2cn1 [Embodiment 59, N-(4-([1,2,4]triazolo[4,3-c]pyrimidin-7-yloxy)-3-methylphenyl)-6-(5-((dimethylamino)methyl)furan-2-yl)-4-aminoquinazoline] | 5.7 | 40.2 | 281 | 61.1 |  | 
Cc1cc(Nc2ncnc3ccc(-c4ccc(CO)o4)cc23)ccc1Oc1cc2nncn2cn1 [Embodiment 60, (5-(4-((4-([1,2,4]triazolo[4,3-c]pyrimidin-7-yloxy)-3-methylphenyl)amino)quinazolin-6-yl)furan-2-yl)methanol] | 1.1 | 15.6 | 108 | 23.4 |  | 
Cc1cc(Nc2ncnc3ccc(-c4ccc(CN5CCN(C)CC5)o4)cc23)ccc1Oc1cc2nncn2cn1 [Embodiment 61] | 6 | 44.7 | 48.9 | 35.4 |  | 
Cc1cc(Nc2ncnc3ccc(-c4cc(CNCCS(C)(=O)=O)co4)cc23)ccc1Oc1cc2nncn2cn1 [Embodiment 62] | 1.5 | 14.2 | 30 | 72.4 |  | 
Cc1cc(Nc2ncnc3ccc(-c4ccc(CN5CCS(=O)(=O)CC5)o4)cc23)ccc1Oc1cc2nncn2cn1 [Embodiment 63] | 1.8 | 29.5 | 12.7 | 13 |  | 
Cc1cc(Nc2ncnc3ccc(-c4cc(CN5CCS(=O)(=O)CC5)co4)cc23)ccc1Oc1cc2nncn2cn1 [Embodiment 64] | 1.6 | 29 | 27.6 | 42.7 |  | 
Cc1cc(Nc2ncnc3ccc(-c4ccc(CNCCS(N)(=O)=O)o4)cc23)ccc1Oc1cc2nncn2cn1 [Embodiment 65] | 1 | 3.8 | 19.8 | 63.2 |  | 
Cc1cc(Nc2ncnc3ccc(NC(=O)Oc4ccccc4)cc23)ccc1Oc1cc2nncn2cn1 [Embodiment 66] |  |  | 275 | 487 | 12.9 | 567
Cc1cc(NC(=O)Nc2ccc3ncnc(Nc4ccc(Oc5cc6nncn6cn5)c(C)c4)c3c2)no1 [Embodiment 67, 1-(4-((4-([1,2,4]triazolo[4,3-c]pyrimidin-7-yloxy)-3-methylphenyl)amino)quinazolin-6-yl)-3-(5-methylisoxazol-3-yl)urea] | 3.2 | 157 | 177 | 264 |  | 
Cc1cc(Nc2ncnc3ccc(-c4cccc(CNCCS(C)(=O)=O)c4)cc23)ccc1Oc1cc2nncn2cn1 [Embodiment 68] | 2.2 | 5.4 | 38.7 | 52 |  | 
Cc1cc(NC(=O)Nc2ccc3ncnc(Nc4ccc(Oc5cc6nncn6cn5)c(C)c4)c3c2)n[nH]1 [Embodiment 70, 1-(4-((4-([1,2,4]triazolo[4,3-c]pyrimidin-7-yloxy)-3-methylphenyl)amino)quinazolin-6-yl)-3-(5-methyl-1H-pyrazol-3-yl)urea] | 3.3 | 73.4 | 172 | 852 |  | 

The next lines start with results.

IC50 (ErbB2 kinase; [1]) [nM] | IC50 (EGFR kinase; [2]) [nM] | IC50 (BT-474) [nM] | Compound | IC50 (N87) [nM] | IC50 (ErbB2 kinase) [nM] | IC50 (EGFR kinase) [nM]
3.5 | 20.7 | 42.7 | C=C(F)C(=O)Nc1cccc(-c2ccc3ncnc(Nc4ccc(Oc5cc6nncn6cn5)c(C)c4)c3c2)c1 [Embodiment 71, N-(3-(4-((4-([1,2,4]triazolo[4,3-c]pyrimidin-7-yloxy)-3-methylphenyl)amino)quinazolin-6-yl)phenyl)-2-fluoroacrylamide] | 66.4 |  | 
0.9 | 4.3 | 30 | Cc1cc(Nc2ncnc3ccc(NC4=NC5(CC5)CO4)cc23)ccc1Oc1cc2nncn2cn1 [Embodiment 72, N′-(4-([1,2,4]triazolo[4,3-c]pyrimidin-7-yloxy)-3-methylphenyl)-N^6-(6-oxa-4-azaspiro[2.4]hept-4-en-5-yl)quinazolin-4,6-diamine] | 34.2 |  | 
4.21 | 34.9 | 139 | Cc1cc(Nc2ncnc3ccc(NC(=O)Nc4cc(C)n(C)n4)cc23)ccc1Oc1cc2nncn2cn1 [Embodiment 73, 1-(4-((4-([1,2,4]triazolo[4,3-c]pyrimidin-7-yloxy)-3-methylphenyl)amino)quinazolin-6-yl)-3-(1,5-dimethyl-1H-pyrazol-3-yl)urea] | 162 |  | 
2.4 | 43.3 | 85.8 | Cc1coc(NC(=O)Nc2ccc3ncnc(Nc4ccc(Oc5cc6nncn6cn5)c(C)c4)c3c2)n1 [Embodiment 74, 1-(4-((4-([1,2,4]triazolo[4,3-c]pyrimidin-7-yloxy)-3-methylphenyl)amino)quinazolin-6-yl)-3-(4-methyloxazol-2-yl)urea] | 106 |  | 
1.34 | 19.2 | 9 | C=CC(=O)Nc1cccc(-c2ccc3ncnc(Nc4ccc(Oc5cc6nncn6cn5)c(C)c4)c3c2)c1 [Embodiment 75, N-(3-(4-((4-([1,2,4]triazolo[4,3-c]pyrimidin-7-yloxy)-3-methylphenyl)amino)quinazolin-6-yl)phenyl)acrylamide] | 15 |  | 
4.9 | 82.2 | 27.9 | Cc1cc(Nc2ncnc3ccc(-c4cccc(NC(=O)/C=C/CN(C)C)c4)cc23)ccc1Oc1cc2nncn2cn1 [Embodiment 76, (E)-N-(3-(4-((4-([1,2,4]triazolo[4,3-c]pyrimidin-7-yloxy)-3-methylphenyl)amino)quinazolin-6-yl)phenyl)-4-(dimethylamino)but-2-enamide] | 42.8 |  | 
5.03 | 23.6 | 254 | Cc1cc(Nc2ncnc3ccc(-c4cccc(F)c4)cc23)ccc1Oc1cc2nncn2cn1 [Embodiment 77, N-(4-([1,2,4]triazolo[4,3-c]pyrimidin-7-yloxy)-3-methylphenyl)-6-(3-fluorophenyl)-4-aminoquinazoline] | 509 |  | 
1.8 | 3.3 | 13.2 | CC1(C)COC(Nc2ccc3ncnc(Nc4ccc(Oc5cc6nncn6cn5)c(Cl)c4)c3c2)=N1 [Embodiment 78, N′-[3-chloro-4-([1,2,4]triazolo[4,3-c]pyrimidin-7-yloxy)phenyl)-N^6-(4,4-dimethyl-4,5-dihydrooxazol-2-yl)quinazolin-4,6-diamine] | 22.3 |  | 
1.7 | 7.7 | 24.7 | Cc1cc(Nc2ncnc3ccc(-c4ccc(CNCCS(C)(=O)=O)s4)cc23)ccc1Oc1cc2nncn2cn1 [Embodiment 79] | 37.2 |  | 
1 | 12.6 | 120 | Cc1cc(Nc2ncnc3ccc(-c4cc[nH]c4)cc23)ccc1Oc1cc2nncn2cn1 [Embodiment 80, N-(4-([1,2,4]triazolo[4,3-c]pyrimidin-7-yloxy)-3-methylphenyl)-6-(1H-pyrrol-3-yl)quinazolin-4-amine] | 36 |  | 
16.6 | 51.9 | 1270 | CC1(C)COC(Nc2ccc3ncnc(Nc4ccc(Oc5cc6nncn6cn5)c(C(F)(F)F)c4)c3c2)=N1 [Embodiment 81, N^4-(3-trifluoromethyl-4-([1,2,4]triazolo[4,3-c]pyrimidin-7-yloxy)phenyl)-N^6-(4,4-dimethyl-4,5-dihydrooxazol-2-yl)quinazolin-4,6-diamine] | 749 |  | 
